Measured values reported in patent US7943660B2, “Inhibitors of the LFA-1/ICAM-1 interaction and uses thereof” (Dominion Pharmakine S.L., priority 2005, dated 2011).

Columns and labels:
[1] = system: Human peripheral blood lymphocyte (PBL) adhesion to immobilized human recombinant ICAM-1; experiment: Human PBL adhesion assay to immobilized recombinant human ICAM-1; type: cell-based; details: PBLs 100 ng/ml PMA 30 min, then HC0303 20 μg/5×10^5 cells for 30 min; FIG. 7; P<0.01
Protocol: Ninety six-well plates were coated with 2 μg/ml recombinant human ICAM-1 (R&D Systems, Minneapolis, Minn.) at 4° C. overnight. Nonspecific binding sites on plastic were blocked by treating the wells with 100 μl of PBS containing 0.5% BSA for 2 h at room temperature. Isolated human PBLs were incubated with either basal medium or 100 ng/ml PMA for 30 min. Then, PBLs were BCECF-AM-labeled and after washing, the compound HC0303 (20 μg/5×10^5 cells) was added for 30 min.
For adhesion assay, PBLs (5×10^4 per well) were added to quadruplicate wells. Then, plates were incubated for 1 hour at 37° C. before unattached cells were removed by washing three times with fresh medium. The number of adhering cells was determined using the same quantitative fluorescence measurement system as above described.
That this anti-adhesive effect of compound HC0303 is due to LFA-1/ICAM-1 interaction blockade was further confirmed along a lymphocyte adhesion assay to immobilized ICAM-1 substrate. Cultured PBLs were incubated with either basal medium or 100 ng/ml PMA for 30 min. Then, PBLs were BCECF-AM-labeled and after washing, compound HC0303 (20 μg/5×10^5 cells) was added for 30 minutes prior to the adhesion assay to a ICAM-1-coated plate. […] The results are the mean ±SD of three separate experiments, each in sextuplicate (n=18). […]

[2] = system: VEGF production by B16M cells; experiment: Measurement of VEGF production by B16M cells in response to soluble ICAM-1 and H2O2 (ELISA); type: cell-based, murine; details: 10 μg/ml HC0303 30 min prior to 200 ng/ml sICAM-1, then DMEM or 10 μM H2O2 for 2 hours; FIG. 8; P<0.01
Protocol: Cultured B16M cells were incubated for 30 min with 200 ng/ml soluble ICAM-1 prior to either basal medium (DMEM) or 10 μM H2O2. Some cells were pre-incubated with 1 μg/ml anti-murine LFA-1 monoclonal antibody or 10 μg/ml compound HC0303 for 30 min before ICAM-1 addition. After 2 hours, supernatants were collected, centrifuged at 1,000 g for 10 min and subjected to 0.22 μm filtration.
The addition of either 1 μg/ml anti-murine LFA-1 monoclonal antibody or 10 μg/ml compound HC0303 for 30 minutes prior to sICAM-1 abrogated induced VEGF production (FIG. 8). Data represent the mean ±SD of two separate experiments; differences in VEGF production in treated versus untreated cells (*) and ICAM-1/H2O2-treated cells were statistically significant (P<0.01) by ANOVA and Bonferroni's post-hoc test.

## CC[C@H](C)C(OCc1ccccc1)[C@@H]1[C@H]([N+](=O)[O-])[C@H](c2ccccc2)N[C@]1(C)C(=O)NCCC(=O)O (stereo partly drawn) [HC0303, 3-[(2S,3R,4S,5S)-3-[(2S)-1-(Benzyloxy)-2-methylbutyl]-2-methyl-4-nitro-5-phenylpyrrolidine-2-carboxamido]propanoic acid]
[1]
  PMA-induced adhesion of PBLs to immobilized human recombinant ICAM-1: significantly decreased
[2]
  induced VEGF production (sICAM-1 / H2O2): abrogated
